In publication PMC7494739, “Evaluation of Artificial Intelligence in Participating Structure-Based Virtual Screening for Identifying Novel Interleukin-1 Receptor Associated Kinase-1 Inhibitors” (Frontiers in Oncology, 2020) one finds Kd, IC50 and Inhibition/% data, which are given here for 6 compounds.

Assay [1] deals with IRAK1. The conditions noted are these: Figure 1; cited from earlier work.
Assay [2] concerns IRAK1. The note with it: Figure 1; cited from earlier work. The source holds these as a separate data set.
The target in a further assay is IRAK1 kinase (Homo sapiens, UniProt P51617). The assay is described as follows: IRAK1 bioactivity test (mobility shift assay). Format: biochemical. The conditions noted are these: for IC50: Table 3, initial concentration 100 μM, serial 10-fold dilution to 1 nM.
IRAK1 kinase, sequence (P51617 whole entry): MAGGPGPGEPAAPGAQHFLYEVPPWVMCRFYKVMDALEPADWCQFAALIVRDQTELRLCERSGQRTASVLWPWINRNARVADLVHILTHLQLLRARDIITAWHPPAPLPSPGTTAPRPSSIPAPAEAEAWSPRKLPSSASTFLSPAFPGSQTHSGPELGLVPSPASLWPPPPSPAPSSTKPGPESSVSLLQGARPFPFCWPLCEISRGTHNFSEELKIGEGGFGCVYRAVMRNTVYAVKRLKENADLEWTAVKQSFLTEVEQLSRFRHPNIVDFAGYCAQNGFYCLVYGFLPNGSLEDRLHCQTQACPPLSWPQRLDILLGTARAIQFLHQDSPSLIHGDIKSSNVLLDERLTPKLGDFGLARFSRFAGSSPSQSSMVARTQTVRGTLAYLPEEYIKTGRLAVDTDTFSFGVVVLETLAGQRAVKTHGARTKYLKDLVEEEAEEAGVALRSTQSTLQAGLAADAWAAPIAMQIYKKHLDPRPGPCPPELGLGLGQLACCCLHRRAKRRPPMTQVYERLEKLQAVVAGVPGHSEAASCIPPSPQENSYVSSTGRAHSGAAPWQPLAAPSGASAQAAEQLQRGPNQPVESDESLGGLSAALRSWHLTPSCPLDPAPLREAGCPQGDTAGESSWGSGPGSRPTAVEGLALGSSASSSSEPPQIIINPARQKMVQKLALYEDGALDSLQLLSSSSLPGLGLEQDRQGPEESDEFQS

SMILES strings stand for the structures.

Take `CC(C)NC(=O)[C@H]1CC[C@@H](n2/c(=N/C(=O)c3cc(F)cc(F)c3)[nH]c3ccc(CN4CCC(C(C)(C)O)CC4)cc32)CC1` [ALK inhibitor 2]: the Kd at IRAK1 [1] was 5.6 nM.
Take `C1=C/COCc2cc(ccc2OCCN2CCCC2)Nc2nccc(n2)-c2cccc(c2)COC/1` [JAK/FLT3 inhibitor 3, Pacritinib]: in the assay on IRAK1 [2], the concentration for half-maximal inhibition (IC50) is 13.6 nM.
For the compound `COc1cccc(Nc2nnc(-c3cc4ccc(O)cc4oc3=O)s2)c1` [K231-1211], the Inhibition/% on IRAK1 kinase (compound at 20 μM) is given as -10.5%.
As for `O=C(Nc1nc2ccccc2n1CCN1CCOCC1)c1cccc([N+](=O)[O-])c1` [benzimidazole derivative 1], the IC50 with IRAK1 [2] was 300 nM.
For the compound `NC(=O)COc1ccc2occ(C(=O)c3ccc(Cl)cc3)c2c1` [compound 4], on IRAK1 kinase, the IC50 was determined as 18000 nM.
Consider `COc1ccc(C(=O)c2coc3ccc(OCC(N)=O)cc23)cc1OC` [compound 5], for which, on IRAK1 kinase, the IC50 stood at 23700 nM.

As a reminder, the Kd is a measure of binding affinity in units of concentration. As a reminder, the IC50 is the concentration that inhibits the measured activity by half.
